Source: publication PMC5517562, “Design and discovery of novel monastrol-1,3,5-triazines as potent anti-breast cancer agent via attenuating Epidermal Growth Factor Receptor tyrosine kinase” (Scientific Reports, 2017)
Read-outs that look alike come from different tables or passages of the source. Values belong to the compound of their own block, whether it stands above or below them.

How the values were obtained:
[1] = system: HL-60 (Human promyelocytic leukemia); assay: MTT in vitro cytotoxicity assay, HL-60; assay type: cell-based
Experimental: (§1) The synthesized compounds were evaluated for in-vitro cytotoxic activity against various cell lines such as HeLa (cervical cancer), MCF-7 (breast cancer), HL-60 (Human promyelocytic leukemia), HepG2 (Hepatocellular carcinoma) and MCF 12A (normal epithelial cell) by the MTT assay method. […] The relationship between surviving fraction and drug concentration was plotted to obtain the survival curve of all the cancer cell lines HeLa, MCF-7, HL-60 and HepG2. The response parameter calculated was the IC50 values, which responds to the concentration required for 50% inhibition of cell viability. The in-vitro cytotoxic activity of the synthesized compounds is summarized Table 3.
(§2) The target compounds were subjected to in vitro cytotoxicity bioassay. In vitro cytotoxicity was determined using a standard MTT assay with protocol appropriate for the individual test system[29]–[31]. The four human cancer cell lines HeLa, MCF-7, HL-60, HepG2 and MCF-12A were cultured in the MEM medium supplemented with 10% FBS, 1% glutamine and […] gentamicin sulfate in a CO2 incubator in a humidified atmosphere of 5% CO2 and 95% air. The test compounds were prepared prior to the experiment by dissolving in 0.1% DMSO and diluted with medium. The cells were then exposed to different concentrations of drugs ([…]) in the volume of […]. Cells in the control wells received the same volume of medium containing 0.1% DMSO. After 24 h, the medium was removed and cell cultures were incubated with […] MTT reagent (1 mg/ml) for 5 h at 37 °C. The known number of cells ([…]) was incubated in a 5% CO2 incubator at 37 °C in the presence of different concentrations of test compounds. After 48 h of drug incubation, the MTT solution was added in each well and absorbance was recorded at 540 nm by an ELISA reader. The experiment was performed in triplicate. Cell survival was calculated as the percentage of MTT inhibition as % growth inhibition = 100 − (mean OD of individual test Group/Mean OD of each Control Group) × 100.

MCF-7 (breast cancer) = assay: MTT in vitro cytotoxicity assay, MCF-7; assay type: cell-based, human
Experimental: as §1, §2

[2] = system: MCF 12A (normal epithelial breast cell line); assay: MTT assay on normal cells, MCF 12A; assay type: cell-based, human; details: normal epithelial breast cell MCF 12A; for IC50: Homo sapiens
Experimental: as §1
The presence of non-halogen substituent along with electron donating substituent seriously jeopardise the anticancer potential. […] To determine the selectivity of these molecules between normal and cancerous cells, the designed compounds were also tested against MCF 12A, a normal epithelial breast cell.
as §2

HeLa (cervical cancer) = assay: MTT in vitro cytotoxicity assay, HeLa; assay type: cell-based, human
Experimental: as §1, §2

EGFR-TK = target: T1, EGFR-TK (Homo sapiens, UniProt P00533); assay: EGFR tyrosine kinase inhibitory activity (Kinase-Glo Plus luminescence); assay type: biochemical; details: for inhibition at 10 µM: read-out: Percent of Inhibition, EGFR tyrosine kinase; for %i: EGFR-TK percent inhibition as repeated in docking Table 5; for inhibition at 10 µM / Percent of Inhibition, EGFR tyrosine kinase: at 10 µM
T1 construct: 0.2 mg/mL Poly (Glu, Tyr) substrate, 10 mM ATP and EGFR
Experimental: Kinase activity was determined using Kinase-Glo Plus luminescence kinase assay kit, by quantitating the amount of ATP remaining in the solution of kinase reaction. The luminescent signal is correlated with the residual amount present and it was inversely related with kinase activity. The tested compounds were diluted to 100 mM in 10% DMSO, then […] of the dilution was added to a 50 mL reaction. All of the enzymatic reactions were performed at 30 °C for 40 min, 50 mL of reaction mixture contains 10 mM MgCl2, 40 mM Tris, pH 7.4, 0.1 mg/mL BSA, 0.2 mg/mL Poly (Glu, Tyr) substrate, 10 mM ATP and EGFR. Incubate the plate for 5 min at r.t. then add 50 mL of Kinase-GloPlus Luminescence kinase assay to each reaction. ADP-Glo assay kit is the protein kinase assays used to determine IC50 values in which ADP generation was measured as it leads to an increase in luminescence signal. The reaction mixture was incubated in a 96-well plate at 30 °C for 30 min, after the incubation period add 25 mL of ADP-Glo reagent to terminate the assay. Shake the 96-well plate for 30 min at ambient temperature then incubate it, then add 50 mL of kinase detection reagent. Read the 96-well plate using the ADP-Glo Luminescence reader. All the assay components were added to the blank control except the substrate. By removing the blank control value you can obtain the corrected activity for each protein kinase target.

[3] = system: HepG2 (Hepatocellular carcinoma); assay: MTT in vitro cytotoxicity assay, HepG2; assay type: cell-based, human; details: NA: Not active
Experimental: as §1, §2

T1 sequence (P00533 25-1210): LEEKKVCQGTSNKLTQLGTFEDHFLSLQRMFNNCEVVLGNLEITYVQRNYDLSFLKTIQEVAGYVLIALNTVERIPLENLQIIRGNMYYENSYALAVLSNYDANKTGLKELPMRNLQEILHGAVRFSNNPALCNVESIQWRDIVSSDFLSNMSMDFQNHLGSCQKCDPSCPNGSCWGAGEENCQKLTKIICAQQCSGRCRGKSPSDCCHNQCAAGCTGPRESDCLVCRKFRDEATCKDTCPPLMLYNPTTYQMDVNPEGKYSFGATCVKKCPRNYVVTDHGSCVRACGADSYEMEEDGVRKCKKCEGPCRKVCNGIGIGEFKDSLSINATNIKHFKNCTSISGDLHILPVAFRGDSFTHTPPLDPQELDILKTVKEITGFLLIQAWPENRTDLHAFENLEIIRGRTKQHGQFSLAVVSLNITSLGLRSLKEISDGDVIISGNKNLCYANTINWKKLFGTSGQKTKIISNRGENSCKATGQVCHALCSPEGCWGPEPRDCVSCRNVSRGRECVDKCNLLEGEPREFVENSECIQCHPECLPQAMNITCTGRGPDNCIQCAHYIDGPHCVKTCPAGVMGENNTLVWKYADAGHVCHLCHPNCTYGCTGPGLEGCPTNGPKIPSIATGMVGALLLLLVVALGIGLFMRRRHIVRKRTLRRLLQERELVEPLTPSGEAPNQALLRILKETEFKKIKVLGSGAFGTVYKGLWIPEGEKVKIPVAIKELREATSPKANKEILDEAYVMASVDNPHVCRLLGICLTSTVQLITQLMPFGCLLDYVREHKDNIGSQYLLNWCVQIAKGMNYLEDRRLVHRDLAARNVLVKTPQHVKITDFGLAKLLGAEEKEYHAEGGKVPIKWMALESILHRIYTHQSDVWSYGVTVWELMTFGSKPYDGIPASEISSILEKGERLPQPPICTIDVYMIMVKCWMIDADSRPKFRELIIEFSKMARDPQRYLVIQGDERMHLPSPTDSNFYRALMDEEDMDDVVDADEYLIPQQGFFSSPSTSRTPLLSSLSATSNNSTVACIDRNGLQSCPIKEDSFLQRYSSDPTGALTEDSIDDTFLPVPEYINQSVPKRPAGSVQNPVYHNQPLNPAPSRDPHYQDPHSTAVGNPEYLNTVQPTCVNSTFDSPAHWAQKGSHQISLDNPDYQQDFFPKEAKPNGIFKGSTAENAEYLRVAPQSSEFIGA

inhibition at 10 µM (EGFR-TK): 74.8%
melting point: 161 to 163 °C
Structure (SMILES): CCOC(=O)C1=C(C)N(c2nc(Nc3cccc(Cl)c3)nc(Nc3cccc(Cl)c3)n2)C(=S)NC1c1ccc(O)cc1 (centres unmarked) [7d, Ethyl 1-(4,6-bis((3-chlorophenyl)amino)-1,3,5-triazin-2-yl)-4-(4-hydroxyphenyl)-6-methyl-2-thioxo-1,2,3,4-tetrahydropyrimidine-5-carboxylate]
IC50 ([1]; Homo sapiens): 43.2 ± 0.38 µM
IC50 (MCF-7 (breast cancer); Homo sapiens, MCF7): 61.3 ± 0.78 µM
IC50 MCF 12A [2]: non-toxic
IC50 (HeLa (cervical cancer); Homo sapiens): 51.3 ± 0.32 µM
IC50 ([3]; Homo sapiens): 41.4 ± 0.38 µM

inhibition at 10 µM (EGFR-TK): 78.5%
melting point: 245 to 247 °C
Structure (SMILES): CCOC(=O)C1=C(C)N(c2nc(Nc3cccc(Br)c3)nc(Nc3cccc(Br)c3)n2)C(=S)NC1c1ccccc1O (centres unmarked) [7e, Ethyl 1-(4,6-bis((3-bromophenyl)amino)-1,3,5-triazin-2-yl)-4-(2-hydroxyphenyl)-6-methyl-2-thioxo-1,2,3,4-tetrahydropyrimidine-5-carboxylate]
IC50 ([1]; Homo sapiens): 57.4 ± 0.52 µM
IC50 (MCF-7 (breast cancer); Homo sapiens, MCF7): 67.8 ± 0.61 µM
IC50 [2]: 89.45 ± 0.45 µM
IC50 (HeLa (cervical cancer); Homo sapiens): 63.9 ± 0.25 µM
IC50 ([3]; Homo sapiens): 65.6 ± 0.45 µM

inhibition at 10 µM (EGFR-TK): 81.4%
melting point: 91 to 93 °C
Structure (SMILES): CCOC(=O)C1=C(C)N(c2nc(Nc3ccccc3Cl)nc(Nc3ccccc3Cl)n2)C(=S)NC1c1ccc(OC)cc1 (centres unmarked) [7f, Ethyl 1-(4,6-bis((2-chlorophenyl)amino)-1,3,5-triazin-2-yl)-4-(4-methoxyphenyl)-6-methyl-2-thioxo-1,2,3,4-tetrahydropyrimidine-5-carboxylate]
IC50 ([1]; Homo sapiens): 47 ± 0.54 µM
IC50 (MCF-7 (breast cancer); Homo sapiens, MCF7): 64 ± 0.38 µM
IC50 [2]: 82.14 ± 0.21 µM
IC50 (HeLa (cervical cancer); Homo sapiens): 55.4 ± 0.12 µM
IC50 ([3]; Homo sapiens): 46.5 ± 0.36 µM

inhibition at 10 µM (EGFR-TK): 94.3%
melting point: 132 to 135 °C
Structure (SMILES): CCOC(=O)C1=C(C)N(c2nc(Nc3cccc(F)c3)nc(Nc3cccc(F)c3)n2)C(=S)NC1c1ccccc1OC (centres unmarked) [7g, Ethyl 1-(4,6-bis((3-fluorophenyl)amino)-1,3,5-triazin-2-yl)-4-(2-methoxyphenyl)-6-methyl-2-thioxo-1,2,3,4-tetrahydropyrimidine-5-carboxylate]
IC50 ([1]; Homo sapiens): 31.5 ± 0.21 µM
IC50 (MCF-7 (breast cancer); Homo sapiens, MCF7): 47.4 ± 0.27 µM
IC50 [2]: 77.22 ± 0.34 µM
IC50 (HeLa (cervical cancer); Homo sapiens): 42.1 ± 0.12 µM
IC50 ([3]; Homo sapiens): 36.3 ± 0.47 µM

%i (EGFR-TK): 70.1%
Percent of Inhibition, EGFR tyrosine kinase (EGFR-TK): 70.1%
inhibition at 10 µM (EGFR-TK): ~69%
Structure (SMILES): CCOC(=O)C1=C(C)N(c2nc(Nc3cccc(Br)c3)nc(Nc3cccc(Br)c3)n2)C(=S)NC1c1ccc([N+](=O)[O-])cc1 (centres unmarked) [7k, Ethyl 1-(4,6-bis((3-bromophenyl)amino)-1,3,5-triazin-2-yl)-6-methyl-4-(4-nitrophenyl)-2-thioxo-1,2,3,4-tetrahydropyrimidine-5-carboxylate]
IC50 ([1]; Homo sapiens): 51.3 ± 0.82 µM
IC50 (MCF-7 (breast cancer); Homo sapiens, MCF7): 65.6 ± 0.43 µM
IC50 MCF 12A [2]: non-toxic
IC50 (HeLa (cervical cancer); Homo sapiens): 66.4 ± 0.67 µM
IC50 ([3]; Homo sapiens): 59.7 ± 0.69 µM

inhibition at 10 µM (EGFR-TK): 54.2%
melting point: 205 to 207 °C
Structure (SMILES): CCOC(=O)C1=C(C)N(c2nc(Nc3ccc(C)cc3)nc(Nc3ccc(C)cc3)n2)C(=S)NC1c1ccccc1C (centres unmarked) [7n, Ethyl 1-(4,6-bis(p-tolylamino)-1,3,5-triazin-2-yl)-6-methyl-2-thioxo-4-(o-tolyl)-1,2,3,4-tetrahydropyrimidine-5-carboxylate]
IC50 ([1]; Homo sapiens): 104.5 ± 0.39 µM
IC50 (MCF-7 (breast cancer); Homo sapiens, MCF7): 93.2 ± 0.58 µM
IC50 MCF 12A [2]: non-toxic
IC50 (HeLa (cervical cancer); Homo sapiens): 92.6 ± 0.23 µM

inhibition at 10 µM (EGFR-TK): 45.6%
melting point: 131 to 133 °C
Structure (SMILES): CCOC(=O)C1=C(C)N(c2nc(Nc3ccc(C)cc3)nc(Nc3ccc(C)cc3)n2)C(=S)NC1c1ccc(O)cc1 (centres unmarked) [7o, Ethyl 1-(4,6-bis(p-tolylamino)-1,3,5-triazin-2-yl)-4-(4-hydroxyphenyl)-6-methyl-2-thioxo-1,2,3,4-tetrahydropyrimidine-5-carboxylate]
IC50 ([1]; Homo sapiens): 98.3 ± 0.27 µM
IC50 (MCF-7 (breast cancer); Homo sapiens, MCF7): 89.4 ± 0.49 µM
IC50 MCF 12A [2]: non-toxic
IC50 (HeLa (cervical cancer); Homo sapiens): 94.3 ± 0.78 µM

More lines, now with the values behind:

Structure (SMILES): CCOC(=O)C1=C(C)N(c2nc(Nc3ccccc3)nc(Nc3ccccc3)n2)C(=S)NC1c1ccccc1 (centres unmarked) [7a, Ethyl 1-(4,6-bis(phenylamino)-1,3,5-triazin-2-yl)-6-methyl-4-phenyl-2-thioxo-1,2,3,4-tetrahydropyrimidine-5-carboxylate]
IC50 ([1]; Homo sapiens): 83.7 ± 0.27 µM
IC50 (MCF-7 (breast cancer); Homo sapiens, MCF7): 87.4 ± 0.76 µM
IC50 MCF 12A [2]: non-toxic
IC50 (HeLa (cervical cancer); Homo sapiens): 96.6 ± 0.45 µM
inhibition at 10 µM (EGFR-TK): 52.4%
IC50 HepG2 [3]: inactive
melting point: 225 to 227 °C

Structure (SMILES): CCOC(=O)C1=C(C)N(c2nc(Nc3ccc([N+](=O)[O-])cc3)nc(Nc3ccc([N+](=O)[O-])cc3)n2)C(=S)NC1c1ccc(C)cc1 (centres unmarked) [7b, Ethyl 1-(4,6-bis((4-nitrophenyl)amino)-1,3,5-triazin-2-yl)-6-methyl-2-thioxo-4-(p-tolyl)-1,2,3,4-tetrahydropyrimidine-5-carboxylate]
IC50 ([1]; Homo sapiens): 77.3 ± 0.41 µM
IC50 (MCF-7 (breast cancer); Homo sapiens, MCF7): 76.5 ± 0.54 µM
IC50 MCF 12A [2]: non-toxic
IC50 (HeLa (cervical cancer); Homo sapiens): 81.8 ± 0.34 µM
inhibition at 10 µM (EGFR-TK): 56.7%
IC50 ([3]; Homo sapiens): 79.3 ± 0.75 µM
melting point: 183 to 185 °C

Structure (SMILES): CCOC(=O)C1=C(C)N(c2nc(Nc3ccccc3[N+](=O)[O-])nc(Nc3ccccc3[N+](=O)[O-])n2)C(=S)NC1c1ccc(C)cc1 (centres unmarked) [7c, Ethyl 1-(4,6-bis((2-nitrophenyl)amino)-1,3,5-triazin-2-yl)-6-methyl-2-thioxo-4-(p-tolyl)-1,2,3,4-tetrahydropyrimidine-5-carboxylate]
IC50 ([1]; Homo sapiens): 70.5 ± 0.49 µM
IC50 (MCF-7 (breast cancer); Homo sapiens, MCF7): 72.2 ± 0.61 µM
IC50 MCF 12A [2]: non-toxic
IC50 (HeLa (cervical cancer); Homo sapiens): 83.5 ± 0.22 µM
inhibition at 10 µM (EGFR-TK): 53.6%
IC50 ([3]; Homo sapiens): 86.4 ± 0.67 µM
melting point: 232 to 234 °C

Structure (SMILES): CCOC(=O)C1=C(C)N(c2nc(Nc3ccc([N+](=O)[O-])cc3)nc(Nc3ccc([N+](=O)[O-])cc3)n2)C(=S)NC1c1ccc(Cl)cc1 (centres unmarked) [7h, Ethyl 1-(4,6-bis((4-nitrophenyl)amino)-1,3,5-triazin-2-yl)-4-(4-chlorophenyl)-6-methyl-2-thioxo-1,2,3,4-tetrahydropyrimidine-5-carboxylate]
IC50 ([1]; Homo sapiens): 61.4 ± 0.36 µM
IC50 (MCF-7 (breast cancer); Homo sapiens, MCF7): 71.5 ± 0.46 µM
IC50 MCF 12A [2]: non-toxic
IC50 (HeLa (cervical cancer); Homo sapiens): 73.4 ± 0.65 µM
%i (EGFR-TK): 69.1%
Percent of Inhibition, EGFR tyrosine kinase (EGFR-TK): 69.1%
inhibition at 10 µM (EGFR-TK): ~69%
IC50 ([3]; Homo sapiens): 69.6 ± 0.38 µM
melting point: 146 to 147 °C

Structure (SMILES): CCOC(=O)C1=C(C)N(c2nc(Nc3ccccc3[N+](=O)[O-])nc(Nc3ccccc3[N+](=O)[O-])n2)C(=S)NC1c1cccc(Br)c1 (centres unmarked) [7i, Ethyl 1-(4,6-bis((2-nitrophenyl)amino)-1,3,5-triazin-2-yl)-4-(3-bromophenyl)-6-methyl-2-thioxo-1,2,3,4-tetrahydropyrimidine-5-carboxylate]
IC50 ([1]; Homo sapiens): 66.7 ± 0.67 µM
IC50 (MCF-7 (breast cancer); Homo sapiens, MCF7): 76.4 ± 0.33 µM
IC50 MCF 12A [2]: non-toxic
IC50 (HeLa (cervical cancer); Homo sapiens): 76 ± 0.54 µM
%i (EGFR-TK): 69.3%
Percent of Inhibition, EGFR tyrosine kinase (EGFR-TK): 69.3%
inhibition at 10 µM (EGFR-TK): ~69%
IC50 ([3]; Homo sapiens): 71.6 ± 0.29 µM
melting point: 185 to 186 °C

Structure (SMILES): N.N.[Cl][Pt][Cl] [Cisplatin, reference compound]
IC50 [1]: 12.3 ± 0.76 µM
IC50 (MCF-7 (breast cancer)): 24.4 ± 0.92 µM
IC50 MCF 12A [2]: non-toxic
IC50 (HeLa (cervical cancer)): 32.5 ± 0.62 µM
IC50 [3]: 25.9 ± 0.82 µM
